Experimental data: patent publication US4499093A, “Interferon induction method” (Dso "Pharmachim", priority 1982, dated 1985)
Several values for one entry are separate records, joined by “and”; a condition that tells them apart may be missing. Identical values can stand only once. Counter-ions that a name gives are not always drawn.

How the values were obtained:
Semliki virus = tested on: Semliki virus; parameters: species or system white mice; conditions: mouse, in vivo
L-cells [1] = assay: cells; conditions: Mus musculus, read-out: MinIFN-IC (minimum interferon-inducing concentration)
Procedure: (§1) In monolayer cellular cultures (L-cells, mouse embryonal fibroblasts, human diploid embryonal pulmonary fibroblasts), the interferon titre is measured and the antiviral resistance is simultaneously determined. […] Incubation of the cultures is carried out for 24 hours at 37° C.; The culture medium after determining its cytotoxicity microscopically is collected for the interferon titre measurement. The cells are rinsed in Hanks' saline solution and inoculated by 100 TCID50 virus of the vesicular stomatite (Indiana strain). The cytopathic effect and the infectious virus yield are specified the basis of which the state of the antiviral resistancy is determined.
(§2) The interferon titre is determined as follows: by the plaque-inhibition method in L-cells or in human embryonal diploid fibroblasts using the vesicular stomatite virus (Indiana strain) by a detector virus; by the cytopathic effect inhibition method of the same virus (using human embryonal diploid fibroblasts). It is expressed in IU/ml by comparing the reference preparations of mouse or human interferon.

serum interferon [2] = assay: serum interferon titre in human volunteers; parameters: average geometrical interferon titre: dose or concentration left out as unconfirmed
Procedure: as §2

[3] = tested on: Human diploid embryonal fibroblasts; assay: cells; conditions: Fibroblast, read-out: MinIFN-IC (minimum interferon-inducing concentration)
Procedure: as §1, §2

[4] = tested on: some DNA and RNA-containing viruses; conditions: cellular cultures, background; cited from earlier work
L-cells [5] = tested on: L-cells
Procedure: as §1, §2

acute toxicity (LD50) = assay: acute toxicity (LD50); parameters: species or system white mice; conditions: mouse, in vivo; intravenous; read-out: single LD50
serum interferon [6] = assay: interferon-inducing activity in vivo in white mice (serum interferon titre)
Procedure: Serum samples for measuring the interferon titre are taken on the 6th, 12th, 24th, 48th, 72nd and 96th hour (mixed serum sample of minimum 8 animals).
as §2

Herpes simplex 1 virus = tested on: Herpes simplex 1 virus; parameters: species or system white mice; conditions: mouse, in vivo
[7] = tested on: Mouse peritoneal leucocytes
Procedure: as §1, §2

[8] = tested on: Human diploid embryonal fibroblasts
Procedure: as §1, §2

influenza virus A = influenza virus A experimental infection in white mice; format: in vivo; conditions: oral or intraperitoneal single dose 24 h before, 24 or 72 h after inoculation
[9] = tested on: Mouse embryonal fibroblasts; assay: interferon induction in mouse embryonal fibroblasts
Procedure: as §1, §2

[10] = tested on: Mouse peritoneal leucocytes; assay: cells; conditions: Leucocyte, read-out: MinIFN-IC (minimum interferon-inducing concentration)
Procedure: as §1, §2

[11] = internal / in vivo, background; cited from earlier work
[12] = intravenous, 0.1 mg/kg, 48th hour

OCCN(CCO)c1nc(N2CCCCC2)c2nc(N(CCO)CCO)nc(N3CCCCC3)c2n1 [Dipyridamole, 2,6-bis (diethanolamino)-4,8-dipiperidinopyramido [5,4-d]pyrimidine]
Lethality % M ± m (Semliki virus): 30.0 ± 15.27% and 40.0 ± 16.32%
Lethality No. (Semliki virus): 3/10 and 4/10
Mean survival time (Semliki virus): 22.6 ± 3.77 days and 20.7 ± 3.82 days
Protection coefficient (Semliki virus): 2.4 and 1.8
antiviral effect in oral application vs intraperitoneal (Semliki virus): much stronger
protective effect (Semliki virus): marked protective effect
t (Semliki virus): 3.02 and 2.64
minimal effective concentration (L-cells [1]): 10 µM
Mean serum interferon titre, positive responders (serum interferon [2]; 0 hours after administration (baseline)): 5.2 ± 1.7 IU/ml
subjects with marked raising of serum interferon level (serum interferon [2]; 100 mg single oral dose, 20 men and women, 24th and 48th hour): 80%
Mean serum interferon titre, positive responders (serum interferon [2]; 24-48 hours after administration): 1069.0 ± 479.7 IU/ml
increase of average geometrical interferon titres vs initial level (serum interferon [2]; 24-48 hours, oral): Over 200 time
average geometrical interferon titre (serum interferon [2]; 24-48 hours, oral single doses as printed): 1069.0±479.7 IU/ml
average geometrical interferon titre, initial level (serum interferon [2]; initial level before dipyridamole): 5.2±1.7 IU/ml
treated subjects with marked interferon production (serum interferon [2]; oral, single doses (1-2 mg/kg)): 80%
minimal effective concentration [3]: 10 µM
antiviral effect in in vitro testing [4]: antiviral effect
Maximum interferon titre (L-cells [5]): ≥ 128 IU/ml
OptINF-IC (optimum interferon-inducing concentration) (L-cells [5]): 30-300 micromol/1
induced interferon titre (L-cells [5]): over 128 IU/ml
induced interferon titres (L-cells [5]): exceed 128 IU/ml
interferon production compared with poly I:C (L-cells [5]): markedly exceeds the interferon production of poly I:C
LD50 (acute toxicity (LD50)): 150 mg/kg
preservation of high serum interferon levels (serum interferon [6]; even 96 hours after administration): relatively continuous preservation of the high interferon levels
time of peak interferon levels (serum interferon [6]; intraperitoneal, 16.7 mg/kg): 24 to 48 h
maximum titres / peak levels (serum interferon [6]; intraperitoneal, 16.7 mg/kg, 24-48th hour): 256 IU/ml
interferon concentrations until the 120th hour (serum interferon [6]; intraperitoneal, 16.7 mg/kg, until 120th hour): Marked concentrations
interferon-inducing activity of lower doses (serum interferon [6]; intraperitoneal, lower doses, under 0.1 mg/kg inclusive): lower but better marked activity
effective doses (serum interferon [6]; intraperitoneal, "or more"): 0.1 to 16.7 mg/kg
effective doses (serum interferon [6]; intravenous): 0.01 to 50 mg/kg
Interferon titre in serum (serum interferon [6]; intravenous, 0.01 mg/kg, 72nd hour): 16 IU/ml
Interferon titre in serum (serum interferon [6]; intravenous, 0.05 mg/kg, 24th hour): < 4 IU/ml
Interferon titre in serum (serum interferon [6]; intravenous, 0.05 mg/kg, 48th hour): 64 IU/ml
Interferon titre in serum (serum interferon [6]; intravenous, 0.05 mg/kg, 72nd hour): 32 IU/ml
Interferon titre in serum (serum interferon [6]; intravenous, 0.1 mg/kg, 6th hour): ≤ 4 IU/ml
Interferon titre in serum (serum interferon [6]; intravenous, 0.1 mg/kg, 12th hour): ≤ 4 IU/ml
Interferon titre in serum (serum interferon [6]; intravenous, 0.1 mg/kg, 24th hour): ≤ 4 IU/ml
Interferon titre in serum (serum interferon [6]; [12]): 128 IU/ml
maximum titres (serum interferon [6]; [12]): 128 IU/ml
Interferon titre in serum (serum interferon [6]; intravenous, 0.1 mg/kg, 72nd hour): 32 IU/ml
Interferon titre in serum (serum interferon [6]; intravenous, 0.2 mg/kg, 24th hour): ≤ 4 IU/ml
Interferon titre in serum (serum interferon [6]; intravenous, 0.2 mg/kg, 48th hour): 32 IU/ml
Interferon titre in serum (serum interferon [6]; intravenous, 0.2 mg/kg, 72nd hour): 32 IU/ml
Interferon titre in serum (serum interferon [6]; intravenous, 0.6 mg/kg, 6th hour): < 4 IU/ml
Interferon titre in serum (serum interferon [6]; intravenous, 0.6 mg/kg, 12th hour): 8 IU/ml
Interferon titre in serum (serum interferon [6]; intravenous, 0.6 mg/kg, 24th hour): 32 IU/ml
Interferon titre in serum (serum interferon [6]; intravenous, 0.6 mg/kg, 48th hour): 16 IU/ml
Interferon titre in serum (serum interferon [6]; intravenous, 0.6 mg/kg, 72nd hour): 16 IU/ml
Interferon titre in serum (serum interferon [6]; intravenous, 1.8 mg/kg, 12th hour): 16 IU/ml
Interferon titre in serum (serum interferon [6]; intravenous, 1.8 mg/kg, 24th hour): 16 IU/ml
Interferon titre in serum (serum interferon [6]; intravenous, 1.8 mg/kg, 72nd hour): 8 IU/ml
Interferon titre in serum (serum interferon [6]; intravenous, 5.5 mg/kg, 12th hour): 16 IU/ml
Interferon titre in serum (serum interferon [6]; intravenous, 5.5 mg/kg, 24th hour): 16 IU/ml
Interferon titre in serum (serum interferon [6]; intravenous, 17.7 mg/kg, 12th hour): 32 IU/ml
Interferon titre in serum (serum interferon [6]; intravenous, 17.7 mg/kg, 24th hour): 16 IU/ml
Interferon titre in serum (serum interferon [6]; intravenous, 50.0 mg/kg, 12th hour): 8 IU/ml
Interferon titre in serum (serum interferon [6]; intravenous, 50.0 mg/kg, 24th hour): 8(4) IU/ml
time of maximum interferon levels (serum interferon [6]; intravenous, higher doses than 0.1 mg/kg): 12 to 24 h
time of maximum titres (serum interferon [6]; oral): 24 to 48 h
serum interferon level at 12th hour (serum interferon [6]; oral, 6.25-100 mg/kg, 12th hour): 128-256 IU/ml
peak serum interferon values (serum interferon [6]; oral, 12.5 or 25 mg/kg, 48th hour): 4096-8192 IU/ml
maximum serum interferon titres (serum interferon [6]; oral, 24-48 hour): 4096-8192 IU/ml
interferon levels at 120th hour (serum interferon [6]; oral): marked interferon levels in the blood
interferon levels at 120th hour (serum interferon [6]; oral, listed as dipyridamole): higher than those in the control (placebo) group
serum interferon level at 12th hour (serum interferon [6]; oral, single doses, 12th hour): 128-256 IU/ml
Lethality % M ± m (Herpes simplex 1 virus): 55.0 ± 11.41%
Lethality No. (Herpes simplex 1 virus): 11/20
Mean survival time (Herpes simplex 1 virus): 17.3 ± 2.64 days
Protection coefficient (Herpes simplex 1 virus): 1.81
antiviral effect in oral application vs intraperitoneal (Herpes simplex 1 virus): much stronger
protective effect (Herpes simplex 1 virus): marked protective effect
t (Herpes simplex 1 virus): 3.94
Maximum interferon titre [7]: ≥ 256 IU/ml
OptINF-IC (optimum interferon-inducing concentration) [7]: 100-1000
interferon titre compared with double-stranded RNA of phage f2 [7]: higher than that induced by double-stranded RNA of phague f2 of E. coli
optimum interferon-inducing concentration [7]: 100 µM
Maximum interferon titre [8]: 16-32
OptINF-IC (optimum interferon-inducing concentration) [8]: 100-300 micromol/1
protective effect (influenza virus A): marked protective effect
OptINF-IC (optimum interferon-inducing concentration) [9]: 300 micromol/1
minimal effective concentration ([9]; Mus musculus, Fibroblast, read-out: MinIFN-IC (minimum interferon-inducing concentration)): 100 µM
Maximum interferon titre ([9]; induced by OptINF-IC): 16 IU/ml
minimal effective concentration [10]: 3 µM

poly I:C
toxicity [11]: toxic internally

CCN(CC)CCOc1ccc2c(c1)C(=O)c1cc(OCCN(CC)CC)ccc1-2 [tilorone-hydrochloride]
toxicity [11]: toxic and unsuitable for clinical application
